Laboratory results reported in patent US20110124867A1, “Process and intermediates for the Synthesis of heterocyclic Substituted Piperazines with CXCR3 Antagonist Activity” (Schering Corporation, priority 2007, published 2011).

Experiments:
CXCR3 = molecular target: T1, CXCR3 (Homo sapiens, UniProt P49682); settings: statement in words, refers to the '641 application; cited from earlier work
T1 sequence (P49682 1-368): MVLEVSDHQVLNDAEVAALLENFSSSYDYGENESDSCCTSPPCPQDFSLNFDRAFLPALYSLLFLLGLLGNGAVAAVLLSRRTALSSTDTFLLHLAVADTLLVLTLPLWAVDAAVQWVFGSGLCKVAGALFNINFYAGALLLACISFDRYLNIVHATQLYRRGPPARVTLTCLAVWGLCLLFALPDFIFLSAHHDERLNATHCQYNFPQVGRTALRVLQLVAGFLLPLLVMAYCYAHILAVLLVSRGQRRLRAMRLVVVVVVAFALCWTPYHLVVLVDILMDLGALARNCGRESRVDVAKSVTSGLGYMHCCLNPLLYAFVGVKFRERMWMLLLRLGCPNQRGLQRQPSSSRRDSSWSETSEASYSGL

[1] = aqueous solubility of salt forms (comparison in words, no method given); type: physicochemical; settings: methylsulfonate salt compared to other salts

SMILES	CXCR3 inhibitor activity (CXCR3)	aqueous solubility [1]
CCNc1nnc(-c2cnc(N3C[C@H](CC)N(C4CCN(C(=O)c5ccc(Cl)cc5)CC4)C[C@H]3C)c(C)n2)o1 [Compound A45]	useful CXCR3 inhibitor activity	–
CCNc1nnc(-c2cnc(N3C[C@H](CC)N(C4CCN(C(=O)c5ccc(Cl)cc5)CC4)C[C@H]3C)c(C)n2)o1 [Compound II-1]	–	higher aqueous solubility
